Source: ChEMBL document CHEMBL1148985, “27-norlanostane glycosides from the bulbs of Muscari paradoxum” (J Nat Prod, 2004)
Active and inactive are the calls of the source. The calls are words filed in the database; no cut-off is given here.

system: HSC-2; assay: Cytotoxicity against human HSC2 cells assessed as cell viability up to 100 uM after 24 hrs; format: functional, cell-based; conditions: not given

SMILES	Activity
CCC(=O)[C@H]1C[C@@H](C)[C@]2(CC(=O)[C@@]3(C)C4=C(CC[C@@]32C)[C@@]2(C)CC[C@H](O[C@@H]3O[C@H](CO[C@@H]5OC[C@H](O)[C@H](O)[C@H]5O[C@@H]5O[C@H](CO)[C@@H](O)[C@H](O)[C@H]5O[C@@H]5O[C@@H](C)[C@H](O)[C@@H](O)[C@H]5O)[C@@H](O)[C@H](O)[C@H]3O)[C@](C)(CO)[C@@H]2CC4)O1	inactive
CCC(=O)[C@H]1C[C@@H](C)[C@]2(CC(=O)[C@@]3(C)C4=C(CC[C@@]32C)[C@@]2(C)CC[C@H](O[C@@H]3O[C@H](CO[C@@H]5OC[C@H](O)[C@H](O)[C@H]5O[C@@H]5O[C@H](CO)[C@@H](O)[C@H](O[C@@H]6OC[C@H](O)[C@H](O)[C@H]6O[C@@H]6OC[C@@H](O)[C@H](O)[C@H]6O)[C@H]5O[C@@H]5O[C@@H](C)[C@H](O)[C@@H](O)[C@H]5O)[C@@H](O)[C@H](O)[C@H]3O)[C@](C)(CO)[C@@H]2CC4)O1	inactive
CCC(=O)[C@H]1C[C@@H](C)[C@]2(CC(=O)[C@@]3(C)C4=C(CC[C@@]32C)[C@@]2(C)CC[C@H](O[C@@H]3O[C@H](CO[C@@H]5OC[C@H](O)[C@H](O)[C@H]5O[C@@H]5O[C@H](CO)[C@@H](O)[C@H](O)[C@H]5O[C@@H]5OC[C@](O)(CO)[C@H]5O)[C@@H](O)[C@H](O)[C@H]3O)[C@](C)(CO)[C@@H]2CC4)O1	inactive

system: HSC-2; assay: Cytotoxicity against human HSC2 cells assessed as cell viability after 24 hrs; format: functional, cell-based; conditions: HSC-2, 24 h

SMILES	IC50 [µM]
CCC(=O)[C@@H]1C[C@@H](C)[C@]2(CC(=O)[C@@]3(C)C4=C(CC[C@@]32C)[C@@]2(C)CC[C@H](O[C@@H]3O[C@H](CO[C@@H]5OC[C@H](O)[C@H](O)[C@H]5O[C@@H]5O[C@H](CO)[C@@H](O)[C@H](O)[C@H]5O[C@@H]5O[C@@H](C)[C@H](O)[C@@H](O)[C@H]5O)[C@@H](O)[C@H](O)[C@H]3O)[C@](C)(CO)[C@@H]2CC4)O1	63
CCC(=O)[C@@H]1C[C@@H](C)[C@]2(CC(=O)[C@@]3(C)C4=C(CC[C@@]32C)[C@@]2(C)CC[C@H](O[C@@H]3O[C@H](CO[C@@H]5OC[C@H](O)[C@H](O)[C@H]5O[C@@H]5O[C@H](CO)[C@@H](O)[C@H](O[C@@H]6OC[C@H](O)[C@H](O)[C@H]6O[C@@H]6OC[C@@H](O)[C@H](O)[C@H]6O)[C@H]5O[C@@H]5O[C@@H](C)[C@H](O)[C@@H](O)[C@H]5O)[C@@H](O)[C@H](O)[C@H]3O)[C@](C)(CO)[C@@H]2CC4)O1	19
CCC(=O)[C@@H]1C[C@@H](C)[C@]2(CC(=O)[C@@]3(C)C4=C(CC[C@@]32C)[C@@]2(C)CC[C@H](O[C@@H]3O[C@H](CO[C@@H]5OC[C@H](O)[C@H](O)[C@H]5O[C@@H]5O[C@H](CO)[C@@H](O)[C@H](O)[C@H]5O[C@@H]5OC[C@](O)(CO)[C@H]5O)[C@@H](O)[C@H](O)[C@H]3O)[C@](C)(CO)[C@@H]2CC4)O1	6.2
CCC(=O)[C@@H]1C[C@@H](C)[C@]2(CC[C@@]3(C)C4=C(CC[C@@]32C)[C@@]2(C)CC[C@H](O[C@@H]3O[C@H](CO[C@@H]5OC[C@H](O)[C@H](O)[C@H]5O[C@@H]5O[C@H](CO)[C@@H](O)[C@H](O[C@@H]6OC[C@H](O)[C@H](O)[C@H]6O[C@@H]6OC[C@@H](O)[C@H](O)[C@H]6O)[C@H]5O[C@@H]5O[C@@H](C)[C@H](O)[C@@H](O)[C@H]5O)[C@@H](O)[C@H](O)[C@H]3O)[C@](C)(CO)[C@@H]2CC4)O1	7.3
CCC(=O)[C@@H]1C[C@@H](C)[C@]2(CC[C@@]3(C)C4=C(CC[C@@]32C)[C@@]2(C)CC[C@H](O[C@@H]3O[C@H](CO[C@@H]5OC[C@H](O)[C@H](O)[C@H]5O[C@@H]5O[C@H](CO)[C@@H](O)[C@H](O)[C@H]5O[C@@H]5O[C@@H](C)[C@H](O)[C@@H](O)[C@H]5O)[C@@H](O)[C@H](O)[C@H]3O)[C@](C)(CO)[C@@H]2CC4)O1	32
